Data taken from ChEMBL document CHEMBL1157539, “Thousands of chemical starting points for antimalarial lead identification” (Nature, 2010).

Tested on: Plasmodium falciparum
Assay: GSK_TCMDC: Inhibition of Plasmodium falciparum 3D7 in whole erythrocytes, using parasite LDH activity as an index of growth.
Assay type: functional, organism-based
Conditions: Plasmodium falciparum, 3D7

Structure (SMILES)	XC50
COc1ccc2nc(-c3ccccc3)cc(N/N=C/c3ccc([N+](=O)[O-])o3)c2c1	202 nM
COc1cccc2c(N/N=C/c3ccc([N+](=O)[O-])cc3)ccnc12	888 nM
CCN(CC)CCN(Cc1ccc(-c2ccc(C(F)(F)F)cc2)nc1)C(=O)Cn1cc(Cc2cnn(C)c2)c(=O)n2nc(-c3ccccc3)cc12	991 nM
CCN(CC)CCN(Cc1ccc(-c2ccc(C(F)(F)F)cc2)cc1)C(=O)Cn1c(CCc2cc(F)cc(F)c2F)nc(=O)c2ccccc21	756 nM
CC(=O)Nc1ccc(Nc2c3ccccc3nc3ccccc23)cc1	1020 nM
Oc1cc(NC[C@H]2CCC[C@@H]2NCc2cc(Br)cc(Br)c2)nc2ccccc12	678 nM
CCC(C)(C)n1c(C)cc2c3c(N)nc(N)nc3ccc21	3.2 nM
c1cc(-c2nc3ccccc3[nH]2)nc(-c2nc3ccccc3[nH]2)c1	1120 nM
N=c1n(CCN2CCCCC2)c2ccccc2n1CC(O)c1cccc(Br)c1 (configuration not stated)	1140 nM
CCOc1cc2c(cc1S(=O)(=O)c1ccc(COc3ccc(C(F)(F)F)cc3)cc1)CCN(C)CC2	1020 nM
Nc1nc(N)c2c(ccc3c2ccn3Cc2cccc(F)c2)n1	3.2 nM
O=C(NCCN1CCCC1)c1cc(-c2ccc(Cl)c(O)c2)c(-c2ccncc2)o1	1630 nM
CCOC(=O)C1=C(C)N=c2sc(=Cc3ccccc3O)c(=O)n2C1c1ccc(OC)c2ccccc12 (configuration not stated)	1260 nM
COc1ccc(N(c2nc(-c3cc(Cl)ccc3Cl)cs2)C2CCNC2)cc1 (configuration not stated)	873 nM
Cc1cc(C)c(CC(C)NCC(O)c2cccc(C(F)(F)F)c2)c(C)c1 (configuration not stated)	568 nM
Cn1cnc(CCNC(=O)c2cccc(-c3cccc(-c4nc5cc(C(F)(F)F)ccc5[nH]4)c3)c2)c1	700 nM
CC1CN(c2nc(NCCc3ccc(O)cc3)nc(NCc3ccccc3-c3ccc(C(F)(F)F)cc3)n2)CC(C)N1 (configuration not stated)	529 nM
CN1CCC(C(=O)Nc2ccc(-c3ccc(-c4nc5cc(C(F)(F)F)ccc5[nH]4)s3)cc2)CC1	987 nM
Cc1cccc2nc(-c3ccc(-c4ccc(CN5CCCC(N)C5)cc4)cc3)[nH]c12 (configuration not stated)	350 nM
CCCCCCCN1CC[C@@H](CCCc2ccnc3ccc(OC)cc23)[C@@H](CNC)C1	211 nM
c1ccc2c(C3CCN(CCCCOc4ccc5c(c4)CCN(C4CCC4)CC5)CC3)c[nH]c2c1	705 nM
O=C(Nc1cccc(-c2cccc(-c3nc4ccccc4[nH]3)c2)c1)Nc1ccc(F)c(F)c1F	55.1 nM
Cc1nc(N)nc(N)c1CCCOc1ccccc1Cl	224 nM
CN1CCc2ccc(NC(=O)Nc3ccc(-c4ccccc4)cc3)cc2C1	511 nM
N=C(N)Nc1ccc(OCCCCCOc2ccc(NC(=N)N)cc2Br)c(Br)c1	262 nM

Structure (SMILES)	XC50
COc1cc(NC(=O)/C=C/c2cc(F)cc(F)c2F)cc(OCCN2CCCCC2)c1	153 nM
CS(=O)(=O)c1ccc(CCNCc2ccc(-c3ccc(CNC4Cc5ccccc5C4)cc3)nc2)cc1	757 nM
COc1cc2nc(Nc3ccc(Oc4ccccc4)cc3)nc(Nc3ccc(Oc4ccccc4)cc3)c2cc1OC	934 nM
CN(C)CCOc1ccc(-c2cc(-c3ccc(Cl)c(O)c3)c(-c3ccncc3)[nH]2)cc1	580 nM
CCOc1ccc(C(C)NC(=O)c2ccc(OC)c(Br)c2)cc1OCC (configuration not stated)	706 nM
CN(C)CCC1CCCc2ccc(NC(=O)Nc3cccc(Cl)c3Cl)cc21 (configuration not stated)	958 nM
Cc1ccc(NC(=S)NC2CCN(CCCCCNC(=O)/C=C/c3ccc(Cl)c(Cl)c3)CC2)cc1Cl	992 nM
CCCCOC(=O)c1ccc(NC(=O)Nc2ccc(Cn3ncc(N4CCCNCC4)c(Cl)c3=O)cc2)cc1	739 nM
O=C(NC1CC1)c1ccc(N2CCC(Cc3ccccc3)CC2)nc1	761 nM
O=C(NCCCN1CCC(NC(=O)c2ccc(-c3cccnc3)cc2)CC1)c1ccc(Cl)c(Cl)c1	854 nM
CS(=O)(=O)CCCNCc1ccc(-c2cc3c(Nc4ccc(OCc5ccccc5)cc4)ncnc3cn2)o1	650 nM
COc1ccc2nc(-c3ccccc3)cc(NCCN(C)C)c2c1	731 nM
CN(CCO)Cc1ccc(-c2ccc(NS(=O)(=O)c3cccc4cccnc34)cc2)cc1	795 nM
COc1ccc(CN2CCC(N3CC(c4ccccc4)(c4ccccc4)OCC3=O)C2)c(O)c1 (configuration not stated)	931 nM
COc1cc(OC)c(NC(=O)C2c3ccccc3C(=O)N(C)C2c2cccs2)cc1Cl (configuration not stated)	764 nM
COCc1cc(C)nc2sc(C(=O)Nc3cc(C(C)(C)C)ccc3O)c(N)c12	714 nM
Cc1cc(C(=O)OCC(=O)Nc2c(C)n(C)n(-c3ccccc3)c2=O)c(C)n1-c1ccc(F)cc1	53.9 nM
CCc1c(CCNCCCCCCNCCc2ccc(Br)cc2)ccc(O)c1O	903 nM
CCCCNc1nccc2ccc(-c3ccncc3)cc12	775 nM
COc1ccc2ccccc2c1CNCC1CCN(CC2CCCCC2)CC1	761 nM
Cc1ccc2[nH]cc(/C=C/C(=O)NC3CCC(CCN4CCc5ccc(C#N)cc5CC4)CC3)c2c1 (configuration not stated)	916 nM
CCc1ccc(C2CCN(CCCCNC(=O)c3ccc(-c4ccc(C(F)(F)F)cc4)cc3)CC2)c(OCCO)c1	410 nM
Oc1ccc(CN2Cc3ccccc3OC3(CCN(Cc4c[nH]c5cnccc45)CC3)C2)cc1	1170 nM
Cn1nccc1C(=O)NCCNCc1ccc(-c2ccc(-c3nc4ccccc4[nH]3)s2)cc1	560 nM
COc1ccc(-c2ccc(NC(=O)c3ccc(Cl)cc3)cc2)cc1CN1CCC(O)CC1	1090 nM

Structure (SMILES)	XC50
CCn1cc(C(=O)O)c(=O)c2cc(F)c(N3CCN(S(=O)(=O)c4ccc(N)cc4)CC3)cc21	922 nM
N[C@@H](COc1cccc2c(-c3ccncc3)c(-c3cccc(NC(=O)Nc4ccccc4)c3)nn12)c1ccccc1	408 nM
CCCCN1Cc2c(n(CC(=O)Nc3ccccc3)c3cc(-c4ccccc4)nn3c2=O)C1=O	811 nM
COc1ccccc1CCC(C)(C)NC(=O)CC(CCc1ccccc1)Nc1ccc(C#N)c2ccccc12 (configuration not stated)	919 nM
Cc1cc(NC2CCCC2)nc(Nc2ccc(F)cc2)n1	471 nM
Cc1c(C(=O)Nc2cc(Sc3ccc(F)cc3)cc([N+](=O)[O-])c2)sc2ncn(Cc3cccc(F)c3)c(=O)c12	720 nM
NC(Cc1cccc(I)c1)C(=O)NCC1CCCO1 (configuration not stated)	895 nM
O=C(NCc1ccc(F)cc1)c1ccc(N2CCN(c3ccncc3)CC2)cn1	886 nM
COc1cc2nc(N3CCC(CNC(=O)c4ccc(-c5ccccc5)cc4)CC3)nc(N)c2cc1OC	574 nM
CCCc1cc(NCc2ccncc2)nc(Nc2ccc(F)cc2)n1	1120 nM
Cc1cccc2nc(-c3cccc(-c4cccc(NC(=O)c5ccc(=O)[nH]n5)c4)c3)[nH]c12	789 nM
C=C(C)C1CC=C(CN2CCC(N3CCc4cc(NC(=O)c5cc(C)on5)ccc43)C2)CC1 (configuration not stated)	707 nM
O=S(=O)(NCCN1CCCC1)c1ccc(-c2ccc(CN3Cc4ccccc4C3)cc2)s1	930 nM
COc1ccc(NC(=O)N2CCc3ccc(OCCN(C(C)C)C(C)C)cc32)cc1C(F)(F)F	969 nM
COC(=O)c1cccc(CNCc2ccc(-c3ccc(-c4nc5cccc(C)c5[nH]4)s3)cc2)c1	402 nM
c1ccc2c(CNc3nc(NCC4CCCCC4)nc4[nH]cnc34)cccc2c1	888 nM
CN(C)CCNCc1ccc(-c2ccc3c(Nc4ccc(Oc5ccccc5)cc4)ccnc3c2)o1	280 nM
Cc1cnc(Nc2cccnc2)nc1Nc1ccccc1C(=O)NC(C)C	1200 nM
CCC(C)(C)NC(=O)C(c1cccc(OC)c1)N(C(=O)CNC(=O)c1cccs1)c1ccc2c(c1)OCCO2 (configuration not stated)	828 nM
Cc1noc(-c2cccs2)c1C(=O)NC(C)c1cccc2ccccc12 (configuration not stated)	129 nM
Cc1c(CNCCCNc2nc3ccncc3[nH]2)sc(Br)c1Br	1040 nM
CCOc1ncccc1CN1CCC(N2CCc3cc(NC(=O)c4cc(C)on4)ccc32)C1 (configuration not stated)	312 nM
COc1ccc(C(=O)N2CCC3(CC2)C(=O)N(CC(=O)NC2CCCCC2)CN3c2ccccc2)c(OC)c1	224 nM
CCOC(=O)c1cccc(NC(=O)Nc2cccc(-c3ncc(OCCCN)c4c3nc(-c3nonc3N)n4CC)c2)c1	894 nM
Cc1cccc(C)c1CNc1nc(N2CCOCC2)cc2c(C)c(C)[nH]c12	1240 nM

Structure (SMILES)	XC50
O=C(CCn1cncn1)N1CCCC(c2[nH]c3ccccc3c2-c2ccncc2)C1 (configuration not stated)	800 nM
CS(=O)(=O)Cc1ccc(Nc2nccc(-c3c(-c4cccc(NC(=O)C5CCCCC5)c4)nn4ncccc34)n2)cc1	201 nM
COc1ccc(NC(=O)c2ccc(Br)c(C)c2)cc1N1CCN(CCCCc2ccccc2)CC1	817 nM
COc1ccc(CNC2Cc3ccccc3C2)cc1-c1ccc(S(=O)(=O)NCc2cccnc2)s1	1110 nM
Cc1nc2ccccc2c(=O)n1NCc1ccc(Cl)c(Cl)c1	146 nM
O=S(=O)(c1ccc(OCc2ccc(Cl)cc2)cc1)c1cc2c(cc1OCc1ccccc1)CCN(CC1CC1)CC2	1110 nM
Cc1ccc(C)c(C2CCN(CCCCNC(=O)c3ccc(NC(=O)c4ccc(Cl)cc4)cc3)CC2)c1	847 nM
CN1CCCN(Cc2cccc(-c3cccc(NC(=O)c4cccc(Cl)c4)c3)c2)CC1	889 nM
CCCC(=O)NC(c1ccc(C(C)C)cc1)c1ccc2cccnc2c1O (configuration not stated)	934 nM
COc1cccc(C2(NC[C@@H](O)[C@H](Cc3ccccc3)NC(=O)c3ccccc3)CCCCC2)c1	729 nM
COC(=O)c1ccc2c(c1)nc(Nc1cccc(F)c1)n2CC(O)c1ccccn1 (configuration not stated)	728 nM
O=C(/C=C/c1ccc(Cl)c(Cl)c1)Nc1cccc(CN2CCC(c3c[nH]c4ccccc34)CC2)c1	670 nM
O=C(Nc1cccc(C(F)(F)F)c1)c1ccc(S(=O)(=O)NCC2CCCN2CC2CCCCC2)cc1 (configuration not stated)	751 nM
CCOC(=O)c1cn(CC)c2cc(N3CCCCC3)c(F)cc2c1=O	125 nM
CC(C)CNCc1ccc(-c2cccc(CN(CCN(C)C)C(=O)CCC3CCCC3)c2)cc1	809 nM
O=C(Nc1ccc(-c2nc3ccccc3[nH]2)cc1)c1cccc(S(=O)(=O)N2CCCC2)c1	743 nM
O=S(=O)(NC1CCN(c2ccnc3cc(Cl)ccc23)C1)c1cccs1 (configuration not stated)	697 nM
CN(C)CCNCc1cccc(-c2cccc(-c3nc4ccccc4[nH]3)c2)c1	766 nM
Clc1ccc(/N=C(/NCCCCCCCN/C(=N\c2ccc(Cl)cc2)Nc2ccc(Cl)cc2)Nc2ccc(Cl)cc2)cc1	321 nM
COc1ccc2ncc(C#N)c(CCN3C4CCC3CC(NCc3ccc5c(n3)NC(=O)CS5)C4)c2c1 (configuration not stated)	810 nM
COc1ccc(-c2cccc(NC(=O)c3ccc(F)cc3)c2)cc1CN1CCCN(C)CC1	833 nM
COc1ccc(-c2cnc(N)c(-c3ccc(C(N)=O)cc3)c2)cc1OC	897 nM
